Experimental data taken from article PMC5607274, “An iterative compound screening contest method for identifying target protein inhibitors using the tyrosine-protein kinase Yes” (Scientific Reports, 2017).

Molecular target: T1, human recombinant Yes [a.a. 2–543 (end)] (Homo sapiens, UniProt P07947)
T1 construct: human recombinant Yes [a.a; 2–543 (end)]; purchased BPS Bioscience 40488
Assay: ADP-Glo kinase assay, inhibition rates of Yes phosphorylation activity (first and second screening)
Assay type: biochemical
Details: 10 μmol L−1 compound; for First screening IR (inhibition rate): mean of n = 4 wells; for Second screening IR (inhibition rate): dissolved from fresh powder, n = 4
How it was run: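 ADP-Glo luminescence measured inhibition of human recombinant Yes (a.a. 2–543) phosphorylation activity. In the first screen, each compound ran in 4 wells and inhibition rates were averaged. The second screen retested hits as compounds dissolved from fresh powder.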

T1 sequence (P07947 2-543): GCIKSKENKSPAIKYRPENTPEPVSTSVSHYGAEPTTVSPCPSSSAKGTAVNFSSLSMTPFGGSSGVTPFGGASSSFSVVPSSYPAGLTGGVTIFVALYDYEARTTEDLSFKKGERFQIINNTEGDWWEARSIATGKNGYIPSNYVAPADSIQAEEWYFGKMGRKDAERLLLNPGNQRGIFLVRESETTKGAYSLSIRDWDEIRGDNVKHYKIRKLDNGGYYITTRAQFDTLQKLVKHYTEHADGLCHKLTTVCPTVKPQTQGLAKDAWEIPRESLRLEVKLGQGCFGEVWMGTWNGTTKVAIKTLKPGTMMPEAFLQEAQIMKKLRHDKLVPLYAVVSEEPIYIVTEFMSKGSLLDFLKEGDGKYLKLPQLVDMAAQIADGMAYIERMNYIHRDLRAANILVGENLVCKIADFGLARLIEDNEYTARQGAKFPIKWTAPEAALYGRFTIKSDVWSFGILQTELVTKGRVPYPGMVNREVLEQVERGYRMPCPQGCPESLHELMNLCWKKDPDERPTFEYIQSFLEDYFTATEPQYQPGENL

| First screening IR (inhibition rate) | Second screening IR (inhibition rate) | SMILES |
| --- | --- | --- |
| 17% | – | Cc1noc(C)c1COc1ccccc1C(=O)NCCSc1ccc(Cl)cc1 [Compound Z89513568] |
| 4% | – | O=S1(=O)CCC(S(=O)(=O)c2ccccc2)C1 (stereo not drawn) [Compound Z57056479] |
| 21% | – | COc1cc(/C=N/Nc2ncnc3sc(C)c(C)c23)ccc1O [Compound Z49890548] |
| -11% | – | O=C(Nc1ccc(F)cc1)NC1CCN(c2ncnc3nc[nH]c23)C1 (stereo not drawn) [Compound Z1193297141] |
| 2% | – | CC(C)(C)n1nc(C(=O)Nc2cccc(C3SCCCS3)c2)cc1C1CC1 [Compound Z735448522] |
| -4% | – | CC(Sc1ncn(-c2ccccc2)n1)c1nc(N)nc(N(C)C)n1 (stereo not drawn) [Compound Z317369924] |
| 22% | – | Cc1ccc(Cn2nc(C)c(C(=O)OCc3nc(N)nc(Nc4ccccc4)n3)c2Cl)cc1 [Compound Z89857426] |
| -12% | – | O=C1CCCN1c1ccc(Nc2nccc(C(F)(F)F)n2)cc1 [Compound Z285697278] |
| -9% | – | O=C(O)c1cccc(/C=C/c2ccnnc2)c1 [Compound Z1728621359] |
| -12% | – | Cc1sc2nc(CN3CCC(C)CC3)nc(N3CCN(C(=O)c4ccccc4O)CC3)c2c1C [Compound Z381659312] |
| -10% | – | O=C(CCNC(=O)c1cc2cc(F)ccc2[nH]1)Nc1ccccn1 [Compound Z649200126] |
| -10% | – | CC(CN(C)Cc1ccccc1)Nc1nc(N)c2ccccc2n1 (stereo not drawn) [Compound Z1593120476] |
| 6% | – | O=C(CSc1nc2ccccc2s1)Nc1cccc2c1C(=O)c1ccccc1C2=O [Compound Z19654122] |
| 45% | – | CCC(C)(C)C1C/C(=C\c2c(Cl)cccc2Cl)c2nc3ccccc3c(C(=O)O)c2C1 (stereo not drawn) [Compound Z46116634] |
| 0% | – | N#Cc1cnc(N2CCN(S(=O)(=O)c3cc(Cl)ccc3Cl)CC2)c(Cl)c1 [Compound Z1039059796] |
| 4% | – | COc1ccc(C(N)=O)c(OCc2cc(C)cc(C)c2)c1 [Compound Z165885974] |
| 14% | – | Cc1cc(S(C)(=O)=O)c(C)c(S(=O)(=O)N2CCCC(C)C2)c1 (stereo not drawn) [Compound Z1145185785] |
| -2% | – | CNS(=O)(=O)c1ccc2c(c1)nc(-c1cc(C#N)n(C)c1)n2C [Compound Z1837787694] |
| -4% | – | CCN(C(=O)CN(C)CC(=O)Nc1c(C)cc(C)cc1C)c1cccc2ccccc12 [Compound Z46455760] |
| 3% | – | Cc1nn(-c2ccccc2)c(Cl)c1CN1CCN(S(=O)(=O)c2ccccc2C(F)(F)F)CC1 [Compound Z94609806] |
| 3% | – | COc1ccccc1-c1cc(-c2ccccc2)c2ccccc2n1.Cl [Compound Z48951051] |
| 24% | – | COC(=O)c1cc(-c2ccc(OC)cc2)nc2c1c(C)nn2CCC#N [Compound Z328815354] |
| 8% | – | O=C(Cc1csc(-c2ccsc2)n1)Nc1ccc2nc(N3CCOCC3)sc2c1 [Compound Z99468124] |

| First screening IR (inhibition rate) | Second screening IR (inhibition rate) | SMILES |
| --- | --- | --- |
| 8% | – | Cc1cc(SCC(=O)NC(=O)NC2CCCC2)nc2ccccc12 [Compound Z20243594] |
| -6% | – | CN(C)S(=O)(=O)CCCS(=O)(=O)N(C)C1CCC1 [Compound Z1720728610] |
| 25% | – | Cl.Oc1ccc(O)c(-c2cc(-c3ccccc3Cl)c3cc(Cl)ccc3n2)c1 [Compound Z134829678] |
| 19% | – | O=C(NCc1ccco1)c1cc(-c2cccnc2)nc2c1cnn2Cc1ccccc1Cl [Compound Z234860216] |
| 16% | – | N#Cc1ccc(C(=O)Nc2nc(-c3ccc(F)c(F)c3)cs2)cc1 [Compound Z28714833] |
| -2% | – | Cc1nn(-c2ccc(Br)cc2)c(C)c1C(=O)Nc1ncn[nH]1 [Compound Z727167436] |
| -3% | – | CN(C)C(=O)CN1CCN(CC(=O)Nc2cc(-c3ccc4c(c3)CCC4)nn2-c2ccccc2)CC1 [Compound Z106627256] |
| 8% | – | O=C(COc1ccc(Br)cc1)Nc1cccc(Cn2ccnc2)c1 [Compound Z362662788] |
| -14% | – | Nc1ccnc(-c2cncs2)n1 [Compound Z1407063064] |
| 15% | – | Cc1ccc(N2C(=O)Cc3c2nc(N)c2c(N)nc(N4CCCC4)c(C#N)c32)cc1C [Compound Z55589600] |
| -6% | – | COc1cc2cc(C3CC(C4CC4)=NN3C(C)=O)c(Cl)nc2cc1OC (stereo not drawn) [Compound Z431511574] |
| -3% | – | CC(C)c1ccc(-n2cc(O)c(C(=O)NCC(C)N3CCCCC3=O)n2)cc1 (stereo not drawn) [Compound Z1820642882] |
| -14% | – | O=S1(=O)CCC(CNS(=O)(=O)c2c[nH]c3nccc(Cl)c23)C1 (stereo not drawn) [Compound Z1547285504] |
| 2% | – | Cc1oc(-c2ccsc2)nc1CC(=O)Nc1cc(C(N)=O)n(C)c1 [Compound Z1039455578] |
| -1% | – | COc1ccc(Nc2nc(COC(=O)CNS(=O)(=O)c3ccc(C)c(C)c3)cs2)cc1 [Compound Z16158532] |
| 3% | – | COC(=O)c1ccc(F)c(S(=O)(=O)N(C)C2C3CCOC3C2(C)C)c1 (stereo not drawn) [Compound Z1252759503] |
| 27% | -29% | COc1c(CNCc2ccc(C(=O)N(C)C)cc2)c(C)nn1C [Compound Z991036884] |
| -5% | – | Cc1cc(N2CCN(C(=O)c3cc(Br)cn3C(C)C)CC2)n[nH]1 [Compound Z1784719533] |
| 45% | – | CC1CC2CCCCC2N1c1ncnc2c1nnn2-c1ccccc1 (stereo not drawn) [Compound Z1270084447] |
| 6% | – | CC(C)c1cccc(NS(=O)(=O)c2ccc(-n3ncc(Cl)c(Cl)c3=O)cc2)c1 [Compound Z286115224] |
| 10% | – | Cc1ccc(CNC(C)(CO)c2cccc(C(F)(F)F)c2)nc1 (stereo not drawn) [Compound Z1426135114] |
| 8% | – | Cc1ccc(C)c(CN2CCN(c3nc4c(c(=O)[nH]c(=O)n4C)n3Cc3ccc(Cl)cc3)CC2)c1 [Compound Z237733696] |
| 9% | – | CCN(CC)Cc1ccccc1CNC(=O)c1c(C)nn(-c2ccc(F)cc2)c1C [Compound Z117807680] |

| First screening IR (inhibition rate) | Second screening IR (inhibition rate) | SMILES |
| --- | --- | --- |
| 6% | – | CCc1nn2c(Nc3ccc(C(N)=O)cc3)cc(C)nc2c1-c1ccc(F)cc1 [Compound Z1179617819] |
| 7% | – | NCCN1C(=O)C2C3C=CC(C3)C2C1=O (stereo not drawn) [Compound Z803067872] |
| 20% | – | CCn1ncc2c(C(=O)OC)cc(-c3cccs3)nc21 [Compound Z90171904] |
| 2% | – | CC1CN(C(=O)OC(C)(C)C)C(C)CN1C(=O)Cc1csc(N2CCNC2=O)n1 (stereo not drawn) [Compound Z1579018538] |
| 13% | – | Nc1ncnc(Nc2cccc(C(F)(F)F)c2)n1 [Compound Z56931708] |
| -24% | – | CCCN1CCN(c2ccc(Nc3ccc4nnnn4n3)cc2Cl)CC1 [Compound Z815791244] |
| 2% | – | CCn1ncc2c(C(=O)NCc3cc(OC)c(OC)cc3OC)cc(-c3ccccc3)nc21 [Compound Z224953910] |
| 0% | – | FC(F)(F)c1ccnc(Nc2ccc3[nH]ncc3c2)n1 [Compound Z285702074] |
| 2% | – | Cl.N#Cc1c(-c2ccc(Cl)cc2)nc2ccccc2c1-c1ccccc1 [Compound Z57989376] |
| 4% | – | Cn1ncc2c(N3CCN(CC[S+]([O-])c4cc(Cl)ccc4Cl)CC3)ncnc21 (stereo not drawn) [Compound Z445169626] |
| 14% | – | CCN(CC)CCn1c(NC(=O)c2ccc(OCC(F)(F)F)nc2)nc2ccccc21 [Compound Z228032620] |
| -28% | – | O=C(NCCCN1CCCCC1)c1cc(-c2ccccc2)nc2c1cnn2Cc1ccncc1 [Compound Z167254296] |
| -1% | – | NS(=O)(=O)c1ccc(CCNC(=O)CSc2nnc(-c3ccccc3F)n2CCc2ccccc2)cc1 [Compound Z16426742] |
| 3% | – | COc1ccccc1N1CCN(Cc2csc(NC(C)=O)n2)CC1 [Compound Z46164581] |
| 2% | – | COc1ccc(S(=O)(=O)N(C)C2CCS(=O)(=O)C2)cc1 (stereo not drawn) [Compound Z89320750] |
| 7% | – | O=[N+]([O-])c1ccc2nc(CSc3ccc(C(F)(F)F)cn3)[nH]c2c1 [Compound Z45358726] |
| -8% | – | COC(=O)Cn1ncc2c(NCCCc3cccc(F)c3)ncnc21 [Compound Z1220626900] |
| 70% | 21% | CC(C)(C)Cc1cc(NC(=O)c2cnn(-c3ccccc3Cl)c2)n[nH]1 [Compound Z1262045135] |
| 1% | – | Cc1nn(CCc2nn[nH]n2)c2nc(-c3ccccc3)cc(C(F)(F)F)c12 [Compound Z55874741] |
| 16% | – | O=c1[nH]c2ccccc2c2nc(-c3ccc(CSc4nc5ccccc5[nH]4)cc3)nn12 [Compound Z208192218] |
| 36% | – | N#Cc1ccccc1S(=O)(=O)N1CCN(C(=O)/C=C/c2ccc3c(c2)OCCCO3)CC1 [Compound Z27234574] |
| -6% | – | OCCNc1ncnc2c1c(-c1ccccc1)cn2-c1ccc(F)cc1 [Compound Z57455953] |
| 55% | – | Cc1nccn1Cc1ccc(NC(=O)c2ncccc2O)cc1 [Compound Z1746485864] |

| SMILES | First screening IR (inhibition rate) | Second screening IR (inhibition rate) |
| --- | --- | --- |
| Cn1ncc2c(N3CCNCC3)ncnc21 [Compound Z223639244] | -11% | – |
